Assay results reported in ChEMBL document CHEMBL3046287, “Azoxystrobin resistance of French Mycosphaerella graminicola strains assessed by four in vitro bioassays and by screening of G143A substitution” (Crop Prot, 2010).
≈ marks a conversion by molar mass, not a printed value.

Assays:
Type in all cases: functional, organism-based
Zymoseptoria tritici [1] = assay: Antifungal activity against azoxystrobin-sensitive Zymoseptoria tritici T0466 carrying cytochrome-b G143 allele assessed as inhibition of spore germination after 2 days at 18 degC by spotting on PDA medium assay; conditions: T0466, 48 h
Zymoseptoria tritici [2] = assay: Antifungal activity against azoxystrobin-resistant Zymoseptoria tritici T055 carrying cytochrome-b A143 allele assessed as fungal growth inhibition after 6 days at 20 degC by microplate without alamar blue assay; conditions: T055, 144 h
Zymoseptoria tritici [3] = assay: Antifungal activity against azoxystrobin-sensitive Zymoseptoria tritici IPO323 carrying cytochrome-b G143 allele assessed as fungal growth inhibition after 6 days at 20 degC by microplate without alamar blue assay; conditions: IPO323, 144 h
Zymoseptoria tritici [4] = assay: Antifungal activity against azoxystrobin-resistant Zymoseptoria tritici T0254 carrying cytochrome-b A143 allele assessed as fungal growth inhibition after 6 days at 20 degC by microplate without alamar blue assay; conditions: T0254, 144 h
Zymoseptoria tritici [5] = assay: Antifungal activity against azoxystrobin-sensitive Zymoseptoria tritici T0210 carrying cytochrome-b G143 allele assessed as inhibition of spore germination after 2 days at 18 degC by spotting on PDA medium assay; conditions: T0210, 48 h
Zymoseptoria tritici [6] = assay: Antifungal activity against azoxystrobin-sensitive Zymoseptoria tritici T0148 carrying cytochrome-b G143 allele assessed as fungal colony perpendicular diameter changes after 10 days at 18 degC by spotting on PDA medium assay; conditions: T0148, 240 h
Zymoseptoria tritici [7] = assay: Antifungal activity against azoxystrobin-resistant Zymoseptoria tritici T0345 carrying cytochrome-b A143 allele assessed as inhibition of spore germination after 2 days at 18 degC by spotting on PDA medium assay; conditions: T0345, 48 h
Zymoseptoria tritici [8] = assay: Antifungal activity against azoxystrobin-sensitive Zymoseptoria tritici T0148 carrying cytochrome-b G143 allele assessed as inhibition of spore germination after 2 days at 18 degC by spotting on PDA medium assay; conditions: T0148, 48 h
Zymoseptoria tritici [9] = assay: Antifungal activity against azoxystrobin-sensitive Zymoseptoria tritici T0384 carrying cytochrome-b G143 allele assessed as fungal growth inhibition after 6 days at 20 degC by microplate without alamar blue assay; conditions: T0384, 144 h
Zymoseptoria tritici [10] = assay: Antifungal activity against azoxystrobin-sensitive Zymoseptoria tritici T0471 carrying cytochrome-b G143 allele assessed as fungal colony perpendicular diameter changes after 10 days at 18 degC by spotting on PDA medium assay; conditions: T0471, 240 h
Zymoseptoria tritici [11] = assay: Antifungal activity against azoxystrobin-resistant Zymoseptoria tritici T0251 carrying cytochrome-b A143 allele assessed as fungal colony perpendicular diameter changes after 10 days at 18 degC by spotting on PDA medium assay; conditions: T0251, 240 h
Zymoseptoria tritici [12] = assay: Antifungal activity against azoxystrobin-sensitive Zymoseptoria tritici T0278 carrying cytochrome-b G143 allele assessed as inhibition of spore germination after 2 days at 18 degC by spotting on PDA medium assay; conditions: T0278, 48 h

With `CO/C=C(/C(=O)OC)c1ccccc1Oc1cc(Oc2ccccc2C#N)ncn1` [AZOXYSTROBIN] the IC50 (Zymoseptoria tritici [1]) was 0.94 µg/mL (≈ 2.33 µM), the IC50 (Zymoseptoria tritici [2]) was over 100 µg/mL and the IC50 (Zymoseptoria tritici [3]) was 0.01 µg/mL (≈ 0.0248 µM). For the same compound, the IC50 (Zymoseptoria tritici [4]) was 32.6 µg/mL (≈ 80.8 µM), the IC50 (Zymoseptoria tritici [5]) was 0.01 µg/mL (≈ 0.0248 µM) and the IC50 (Zymoseptoria tritici [6]) was 0.06 µg/mL (≈ 0.149 µM). The IC50 (Zymoseptoria tritici [7]) was 12.6 µg/mL (≈ 31.3 µM), the IC50 (Zymoseptoria tritici [8]) was 0.08 µg/mL (≈ 0.198 µM) and the IC50 (Zymoseptoria tritici [9]) was 0.06 µg/mL (≈ 0.149 µM). For the same compound, the IC50 (Zymoseptoria tritici [10]) was 0.1 µg/mL (≈ 0.248 µM), the IC50 (Zymoseptoria tritici [11]) was 15.3 µg/mL (≈ 38 µM) and the IC50 (Zymoseptoria tritici [12]) was 0.94 µg/mL (≈ 2.33 µM).
